Source: ChEMBL document CHEMBL3784917, “Recent Progress in Histone Demethylase Inhibitors” (J Med Chem, 2016)
pIC50: −log10 of the molar value.

Assays:
[1] = target: T1, Lysine-specific demethylase 4C (Homo sapiens, UniProt Q9H3R0); test: Inhibition of recombinant N-terminal FLAG-tagged Tev-KDM4C (1 to 366 residues) (unknown origin) using […] as substrate preincubated for 10 mins followed by substrate addition by rapid fire demethylase assay
T1 sequence (Q9H3R0 whole entry): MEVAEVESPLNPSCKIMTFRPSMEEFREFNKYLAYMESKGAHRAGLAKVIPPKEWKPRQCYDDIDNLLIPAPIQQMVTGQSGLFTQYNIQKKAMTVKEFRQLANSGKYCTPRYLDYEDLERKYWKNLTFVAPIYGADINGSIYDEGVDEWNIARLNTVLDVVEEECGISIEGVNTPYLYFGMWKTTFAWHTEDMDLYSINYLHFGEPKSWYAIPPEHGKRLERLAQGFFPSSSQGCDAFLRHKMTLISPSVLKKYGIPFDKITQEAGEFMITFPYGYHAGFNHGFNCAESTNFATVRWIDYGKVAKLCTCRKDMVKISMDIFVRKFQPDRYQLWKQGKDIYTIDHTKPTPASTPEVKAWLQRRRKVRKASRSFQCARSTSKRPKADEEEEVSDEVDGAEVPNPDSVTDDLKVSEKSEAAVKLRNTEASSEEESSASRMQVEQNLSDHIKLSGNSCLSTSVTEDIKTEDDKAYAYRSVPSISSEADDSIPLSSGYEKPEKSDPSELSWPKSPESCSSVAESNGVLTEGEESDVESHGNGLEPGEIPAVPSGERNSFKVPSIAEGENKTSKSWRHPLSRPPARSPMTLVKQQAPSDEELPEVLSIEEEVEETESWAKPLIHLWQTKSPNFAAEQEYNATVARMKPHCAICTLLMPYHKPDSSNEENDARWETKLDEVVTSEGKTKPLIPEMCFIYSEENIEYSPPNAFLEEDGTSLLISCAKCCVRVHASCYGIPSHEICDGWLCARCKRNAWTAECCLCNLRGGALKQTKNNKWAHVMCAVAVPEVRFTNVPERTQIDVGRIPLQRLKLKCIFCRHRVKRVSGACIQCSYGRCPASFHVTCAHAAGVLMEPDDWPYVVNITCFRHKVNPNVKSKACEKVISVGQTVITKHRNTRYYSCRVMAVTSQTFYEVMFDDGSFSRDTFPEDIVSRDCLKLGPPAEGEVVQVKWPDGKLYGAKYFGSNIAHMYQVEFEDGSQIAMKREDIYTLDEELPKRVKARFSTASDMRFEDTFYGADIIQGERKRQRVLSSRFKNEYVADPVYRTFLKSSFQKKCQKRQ

[2] = target: Lysine-specific demethylase 5A (Homo sapiens, UniProt P29375)
[3] = Antiproliferative activity against human KYSE-150 cells expressing KDM4C; assay type: functional, cell-based
[4] = target: Lysine-specific demethylase 5B (Homo sapiens, UniProt Q9UGL1)
[5] = target: Lysine-specific histone demethylase 1A (Homo sapiens, UniProt O60341); test: biochemical
[6] = target: T2, Amine oxidase [flavin-containing] B (Homo sapiens, UniProt P27338)
T2 sequence (P27338 whole entry): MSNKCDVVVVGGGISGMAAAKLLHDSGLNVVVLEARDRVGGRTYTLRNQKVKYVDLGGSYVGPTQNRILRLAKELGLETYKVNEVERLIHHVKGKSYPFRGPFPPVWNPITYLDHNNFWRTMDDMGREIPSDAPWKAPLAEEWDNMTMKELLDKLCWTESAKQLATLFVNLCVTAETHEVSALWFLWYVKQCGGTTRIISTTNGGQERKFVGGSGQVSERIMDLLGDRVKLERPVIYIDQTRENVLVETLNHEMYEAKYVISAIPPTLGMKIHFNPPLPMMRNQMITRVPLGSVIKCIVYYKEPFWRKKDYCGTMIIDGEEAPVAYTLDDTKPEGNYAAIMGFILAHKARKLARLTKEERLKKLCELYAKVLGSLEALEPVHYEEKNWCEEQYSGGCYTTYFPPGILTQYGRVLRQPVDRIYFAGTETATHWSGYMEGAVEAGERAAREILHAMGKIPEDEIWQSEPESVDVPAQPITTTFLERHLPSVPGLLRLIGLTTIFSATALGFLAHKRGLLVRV

Lysine-specific demethylase 5A, sequence (P29375 whole entry): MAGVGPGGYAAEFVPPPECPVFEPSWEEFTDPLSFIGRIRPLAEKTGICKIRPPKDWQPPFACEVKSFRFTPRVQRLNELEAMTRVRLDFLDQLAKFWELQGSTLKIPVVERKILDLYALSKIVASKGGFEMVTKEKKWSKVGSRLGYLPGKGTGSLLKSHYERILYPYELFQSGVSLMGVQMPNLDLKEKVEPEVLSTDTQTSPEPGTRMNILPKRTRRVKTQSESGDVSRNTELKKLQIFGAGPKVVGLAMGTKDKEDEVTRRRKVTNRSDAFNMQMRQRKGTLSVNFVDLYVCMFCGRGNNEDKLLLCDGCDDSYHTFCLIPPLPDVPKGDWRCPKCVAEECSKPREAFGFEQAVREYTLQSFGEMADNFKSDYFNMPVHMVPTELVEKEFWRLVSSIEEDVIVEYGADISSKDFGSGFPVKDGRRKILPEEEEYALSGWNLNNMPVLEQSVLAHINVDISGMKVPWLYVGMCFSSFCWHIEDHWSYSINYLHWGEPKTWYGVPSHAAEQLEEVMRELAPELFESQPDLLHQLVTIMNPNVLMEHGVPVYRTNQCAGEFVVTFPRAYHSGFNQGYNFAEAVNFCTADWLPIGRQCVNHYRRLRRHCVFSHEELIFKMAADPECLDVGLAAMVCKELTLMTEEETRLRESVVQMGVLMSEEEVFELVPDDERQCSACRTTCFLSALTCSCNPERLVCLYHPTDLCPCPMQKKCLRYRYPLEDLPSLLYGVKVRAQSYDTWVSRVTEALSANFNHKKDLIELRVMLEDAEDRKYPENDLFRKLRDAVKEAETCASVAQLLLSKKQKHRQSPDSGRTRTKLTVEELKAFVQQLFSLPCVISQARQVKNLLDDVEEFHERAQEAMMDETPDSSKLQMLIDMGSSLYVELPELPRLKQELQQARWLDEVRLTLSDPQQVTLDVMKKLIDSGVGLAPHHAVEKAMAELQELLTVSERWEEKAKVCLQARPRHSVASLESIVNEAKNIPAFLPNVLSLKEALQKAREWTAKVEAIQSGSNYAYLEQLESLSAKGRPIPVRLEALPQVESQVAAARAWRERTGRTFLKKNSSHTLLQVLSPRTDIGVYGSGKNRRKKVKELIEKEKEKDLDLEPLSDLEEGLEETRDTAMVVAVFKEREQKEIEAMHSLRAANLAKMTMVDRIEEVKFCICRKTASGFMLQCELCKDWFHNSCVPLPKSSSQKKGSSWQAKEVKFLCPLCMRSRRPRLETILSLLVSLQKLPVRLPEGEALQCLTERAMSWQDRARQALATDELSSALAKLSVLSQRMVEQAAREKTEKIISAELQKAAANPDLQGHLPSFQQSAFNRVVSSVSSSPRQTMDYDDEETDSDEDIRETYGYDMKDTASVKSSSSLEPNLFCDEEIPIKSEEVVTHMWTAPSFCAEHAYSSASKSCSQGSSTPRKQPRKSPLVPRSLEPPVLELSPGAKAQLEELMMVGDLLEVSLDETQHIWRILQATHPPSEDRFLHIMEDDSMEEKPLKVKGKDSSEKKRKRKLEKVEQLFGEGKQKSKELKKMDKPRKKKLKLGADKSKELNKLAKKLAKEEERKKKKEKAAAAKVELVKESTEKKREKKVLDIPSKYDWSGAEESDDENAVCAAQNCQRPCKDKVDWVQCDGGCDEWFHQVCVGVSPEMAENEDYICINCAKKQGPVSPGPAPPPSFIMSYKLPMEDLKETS
Lysine-specific demethylase 5B, sequence (Q9UGL1 whole entry): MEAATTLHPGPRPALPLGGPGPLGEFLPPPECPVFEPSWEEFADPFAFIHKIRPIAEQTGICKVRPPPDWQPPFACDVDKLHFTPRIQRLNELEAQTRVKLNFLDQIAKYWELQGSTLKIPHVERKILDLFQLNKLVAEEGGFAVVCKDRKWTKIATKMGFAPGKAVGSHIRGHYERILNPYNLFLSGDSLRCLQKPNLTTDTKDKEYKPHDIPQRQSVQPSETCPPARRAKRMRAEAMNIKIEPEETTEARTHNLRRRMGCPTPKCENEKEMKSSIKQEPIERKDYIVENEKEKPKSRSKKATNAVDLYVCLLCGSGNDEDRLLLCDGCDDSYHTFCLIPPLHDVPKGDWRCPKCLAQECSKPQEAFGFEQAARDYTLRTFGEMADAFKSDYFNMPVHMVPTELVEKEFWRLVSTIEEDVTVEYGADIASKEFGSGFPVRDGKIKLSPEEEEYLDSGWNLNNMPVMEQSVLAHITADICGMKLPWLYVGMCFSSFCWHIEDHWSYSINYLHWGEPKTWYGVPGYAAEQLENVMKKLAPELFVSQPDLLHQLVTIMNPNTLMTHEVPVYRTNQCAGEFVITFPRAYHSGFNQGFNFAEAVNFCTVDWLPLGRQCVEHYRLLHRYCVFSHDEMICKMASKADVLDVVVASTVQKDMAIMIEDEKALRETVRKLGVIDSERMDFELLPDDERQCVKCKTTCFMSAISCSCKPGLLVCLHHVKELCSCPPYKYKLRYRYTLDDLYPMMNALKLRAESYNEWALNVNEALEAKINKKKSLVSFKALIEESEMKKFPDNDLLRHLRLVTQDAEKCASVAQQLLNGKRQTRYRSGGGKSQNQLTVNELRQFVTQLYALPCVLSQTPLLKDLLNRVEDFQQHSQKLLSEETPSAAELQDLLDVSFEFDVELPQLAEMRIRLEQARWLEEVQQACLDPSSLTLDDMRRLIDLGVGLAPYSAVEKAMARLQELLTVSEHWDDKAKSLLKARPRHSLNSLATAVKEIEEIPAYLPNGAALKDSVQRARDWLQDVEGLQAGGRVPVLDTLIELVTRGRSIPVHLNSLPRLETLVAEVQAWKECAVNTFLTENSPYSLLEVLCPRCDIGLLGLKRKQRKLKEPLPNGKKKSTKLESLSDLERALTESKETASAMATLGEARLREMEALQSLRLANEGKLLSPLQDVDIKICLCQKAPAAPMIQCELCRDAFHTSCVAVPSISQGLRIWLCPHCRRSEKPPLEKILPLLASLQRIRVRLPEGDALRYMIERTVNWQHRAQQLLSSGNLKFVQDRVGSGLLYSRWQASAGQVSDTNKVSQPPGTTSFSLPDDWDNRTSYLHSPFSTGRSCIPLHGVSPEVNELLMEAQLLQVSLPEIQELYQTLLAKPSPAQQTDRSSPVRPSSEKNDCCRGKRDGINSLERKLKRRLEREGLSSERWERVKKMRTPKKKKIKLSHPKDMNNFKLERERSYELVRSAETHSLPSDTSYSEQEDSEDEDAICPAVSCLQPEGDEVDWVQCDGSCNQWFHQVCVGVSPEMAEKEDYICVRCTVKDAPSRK

| pIC50 [1] | pIC50 [2] | pIC50 [4] | pIC50 [5] | pIC50 [6] | SMILES | pIC50 [3] |
| --- | --- | --- | --- | --- | --- | --- |
| > 7.00 | > 7.00 | > 7.00 | – | – | CCS(=O)(=O)N1CC[C@H](n2cc(Oc3nc(O)c4ccncc4n3)cn2)C1 | 7.00 |
| > 7.00 | > 7.00 | > 7.00 | – | – | Oc1nc(Oc2cnn(CCN3CCOCC3)c2)nc2cnccc12 | 7.00 |
| > 7.00 | > 7.00 | > 7.00 | – | – | Oc1nc(Oc2cnn([C@@H]3CCCN(Cc4ccccc4)C3)c2)nc2cnccc12 | 7.00 |

Second part, the compound before the results:

| SMILES | pIC50 [1] | pIC50 [2] | pIC50 [4] | pIC50 [5] | pIC50 [6] | pIC50 [3] |
| --- | --- | --- | --- | --- | --- | --- |
| c1ccc(CN2CCC(CN[C@@H]3C[C@H]3c3ccccc3)CC2)cc1 (racemic) | – | – | – | 8.22 | 4.60 | – |
| CN1CCC(CN[C@@H]2C[C@H]2c2ccccc2)CC1 (racemic) | – | – | – | 8.22 | 4.60 | – |
| Cn1cnc(-c2nccc3c(O)nc(OCCCC(F)(F)F)nc23)c1 | 7.00 | > 7.00 | > 7.00 | – | – | 7.00 |
